ChEMBL document CHEMBL4715753, “Bridging computational modeling with amino acid replacements to investigate GHS-R1a-peptidomimetic recognition” (Eur J Med Chem, 2016)
pIC50: −log10 of the molar value.

Target: Growth hormone secretagogue receptor type 1 (Homo sapiens, UniProt Q92847)
Assay: Displacement of [125I-His9]-ghrelin from GHS-R1a (unknown origin) expressed in human HEK293 cells incubated for 20 mins by gamma scintillation counting method
Assay type: cell-based

Sequence of Growth hormone secretagogue receptor type 1 (Q92847 whole entry): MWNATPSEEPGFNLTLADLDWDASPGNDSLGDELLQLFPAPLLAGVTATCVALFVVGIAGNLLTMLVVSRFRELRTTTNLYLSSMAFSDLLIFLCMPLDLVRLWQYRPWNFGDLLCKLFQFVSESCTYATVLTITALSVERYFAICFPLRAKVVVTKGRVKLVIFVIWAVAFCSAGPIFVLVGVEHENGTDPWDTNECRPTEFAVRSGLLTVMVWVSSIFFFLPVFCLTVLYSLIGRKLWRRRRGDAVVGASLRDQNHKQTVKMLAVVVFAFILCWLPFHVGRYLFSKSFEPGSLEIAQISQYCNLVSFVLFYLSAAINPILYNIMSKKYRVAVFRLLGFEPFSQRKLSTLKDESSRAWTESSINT

pIC50	SMILES
< 5.00	C[C@H](NC(=O)C1CCNCC1)C(=O)N[C@H](Cc1ccc2ccccc2c1)C(=O)N[C@@H](Cc1ccccc1)C(=O)N[C@@H](CCCCN)C(N)=O
7.60	NCCCC[C@H](NC(=O)[C@H](Cc1ccncc1)NC(=O)[C@@H](Cc1ccc2ccccc2c1)NC(=O)[C@@H](Cc1ccc2ccccc2c1)NC(=O)C1CCNCC1)C(N)=O
